According to ChEMBL document CHEMBL5724806, “Unraveling interindividual differences and functional consequences of gut microbial metabolism of immunosuppressants” (2024):

Assays:
Assay type in all cases: ADME
[1] = (§1) The drug is tested on Alloscardovia omnicolens strain: DSM21503 for biotransformation under anaerobic condition. The drug concentrations were measured over 6 timepoints collected between 0 and 12 hours of incubation by liquid-chromatography-coupled mass spectrometry (LC–MS); design: dose 5 uM, timepoint 0, 1.5, 3, 6, 9, 12 hours; details: 5 µM
[2] = The drug is tested on Bifidobacterium adolescentis strain: DSM20083 for biotransformation under anaerobic condition. The drug concentrations were measured over 6 timepoints collected between 0 and 12 hours of incubation by liquid-chromatography-coupled mass spectrometry (LC–MS); design: dose 5 uM, timepoint 0, 1.5, 3, 6, 9, 12 hours; details: 5 µM
[3] = The drug is tested on Bifidobacterium longum strain: DSM20088 for biotransformation under anaerobic condition. The drug concentrations were measured over 6 timepoints collected between 0 and 12 hours of incubation by liquid-chromatography-coupled mass spectrometry (LC–MS); design: dose 5 uM, timepoint 0, 1.5, 3, 6, 9, 12 hours; details: 5 µM
[4] = The drug is tested on Bacteroides stercoris strain: HM 1036 for biotransformation under anaerobic condition. The drug concentrations were measured over 6 timepoints collected between 0 and 12 hours of incubation by liquid-chromatography-coupled mass spectrometry (LC–MS); design: dose 5 uM, timepoint 0, 1.5, 3, 6, 9, 12 hours; details: 5 µM
[5] = The drug is tested on Odoribacter splanchnicus strain: DSM20712 for biotransformation under anaerobic condition. The drug concentrations were measured over 6 timepoints collected between 0 and 12 hours of incubation by liquid-chromatography-coupled mass spectrometry (LC–MS); design: dose 5 uM, timepoint 0, 1.5, 3, 6, 9, 12 hours; details: 5 µM
[6] = The drug is tested on Prevotella copri strain: DSM18205 for biotransformation under anaerobic condition. The drug concentrations were measured over 6 timepoints collected between 0 and 12 hours of incubation by liquid-chromatography-coupled mass spectrometry (LC–MS); design: dose 5 uM, timepoint 0, 1.5, 3, 6, 9, 12 hours; details: segatella copri, 5 µM
[7] = The drug is tested on Coprococcus comes strain: ATCC27758 for biotransformation under anaerobic condition. The drug concentrations were measured over 6 timepoints collected between 0 and 12 hours of incubation by liquid-chromatography-coupled mass spectrometry (LC–MS); design: dose 5 uM, timepoint 0, 1.5, 3, 6, 9, 12 hours; details: 5 µM
[8] = The drug is tested on Lactobacillus paracasei strain: ATCC27092 for biotransformation under anaerobic condition. The drug concentrations were measured over 6 timepoints collected between 0 and 12 hours of incubation by liquid-chromatography-coupled mass spectrometry (LC–MS); design: dose 5 uM, timepoint 0, 1.5, 3, 6, 9, 12 hours; details: lacticaseibacillus paracasei, 5 µM
[9] = The drug is tested on Lactobacillus reuteri strain: DSM20016 for biotransformation under anaerobic condition. The drug concentrations were measured over 6 timepoints collected between 0 and 12 hours of incubation by liquid-chromatography-coupled mass spectrometry (LC–MS); design: dose 5 uM, timepoint 0, 1.5, 3, 6, 9, 12 hours; details: limosilactobacillus reuteri, 5 µM
[10] = The drug is tested on Streptococcus salivarius strain: DSM20560 for biotransformation under anaerobic condition. The drug concentrations were measured over 6 timepoints collected between 0 and 12 hours of incubation by liquid-chromatography-coupled mass spectrometry (LC–MS); design: dose 5 uM, timepoint 0, 1.5, 3, 6, 9, 12 hours; details: 5 µM
[11] = The drug is tested on Enterococcus faecalis strain: ATCC29212 for biotransformation under anaerobic condition. The drug concentrations were measured over 6 timepoints collected between 0 and 12 hours of incubation by liquid-chromatography-coupled mass spectrometry (LC–MS); design: dose 5 uM, timepoint 0, 1.5, 3, 6, 9, 12 hours; details: 5 µM
[12] = The drug is tested on Escherichia coli strain: DSM27469 for biotransformation under anaerobic condition. The drug concentrations were measured over 6 timepoints collected between 0 and 12 hours of incubation by liquid-chromatography-coupled mass spectrometry (LC–MS); design: dose 5 uM, timepoint 0, 1.5, 3, 6, 9, 12 hours; details: 5 µM
[13] = (§2) The drug is tested on Actinomyces graevenitzii strain: DSM15540 for biotransformation under microaerobic condition. The drug concentrations were measured over 6 timepoints collected between 0 and 12 hours of incubation by liquid-chromatography-coupled mass spectrometry (LC–MS); design: dose 5 uM, timepoint 0, 1.5, 3, 6, 9, 12 hours; details: 5 µM
[14] = The drug is tested on Lactobacillus paracasei strain: ATCC27092 for biotransformation under microaerobic condition. The drug concentrations were measured over 6 timepoints collected between 0 and 12 hours of incubation by liquid-chromatography-coupled mass spectrometry (LC–MS); design: dose 5 uM, timepoint 0, 1.5, 3, 6, 9, 12 hours; details: lacticaseibacillus paracasei, 5 µM
[15] = The drug is tested on Lactobacillus ruminis strain: ATCC25644 for biotransformation under microaerobic condition. The drug concentrations were measured over 6 timepoints collected between 0 and 12 hours of incubation by liquid-chromatography-coupled mass spectrometry (LC–MS); design: dose 5 uM, timepoint 0, 1.5, 3, 6, 9, 12 hours; details: ligilactobacillus ruminis, 5 µM
[16] = The drug is tested on Streptococcus salivarius strain: DSM20560 for biotransformation under microaerobic condition. The drug concentrations were measured over 6 timepoints collected between 0 and 12 hours of incubation by liquid-chromatography-coupled mass spectrometry (LC–MS); design: dose 5 uM, timepoint 0, 1.5, 3, 6, 9, 12 hours; details: 5 µM
[17] = The drug is tested on Escherichia coli strain: DSM27469 for biotransformation under microaerobic condition. The drug concentrations were measured over 6 timepoints collected between 0 and 12 hours of incubation by liquid-chromatography-coupled mass spectrometry (LC–MS); design: dose 5 uM, timepoint 0, 1.5, 3, 6, 9, 12 hours; details: 5 µM
[18] = as §1, with “the gut metagenome community of A-02 with ENA study accession number: PRJEB31790” for “Alloscardovia omnicolens strain: DSM21503”, “7” for “6”; design: dose 5 uM, timepoint 0, 0.75, 1.5, 3, 6, 9, 12 hours; details: 5 µM
[19] = as §1, with “the gut metagenome community of A-03 with ENA study accession number: PRJEB31790” for “Alloscardovia omnicolens strain: DSM21503”, “7” for “6”; design: dose 5 uM, timepoint 0, 0.75, 1.5, 3, 6, 9, 12 hours; details: 5 µM
[20] = as §1, with “the gut metagenome community of P-01 with ENA study accession number: PRJEB31790” for “Alloscardovia omnicolens strain: DSM21503”, “7” for “6”; design: dose 5 uM, timepoint 0, 0.75, 1.5, 3, 6, 9, 12 hours; details: 5 µM
[21] = as §1, with “the gut metagenome community of T-03 with ENA study accession number: PRJEB31790” for “Alloscardovia omnicolens strain: DSM21503”, “7” for “6”; design: dose 5 uM, timepoint 0, 0.75, 1.5, 3, 6, 9, 12 hours; details: 5 µM
[22] = as §1, with “the gut metagenome community of T-04 with ENA study accession number: PRJEB31790” for “Alloscardovia omnicolens strain: DSM21503”, “7” for “6”; design: dose 5 uM, timepoint 0, 0.75, 1.5, 3, 6, 9, 12 hours; details: 5 µM
[23] = as §2, with “the gut metagenome community of A-02 with ENA study accession number: PRJEB31790” for “Actinomyces graevenitzii strain: DSM15540”, “7” for “6”; design: dose 5 uM, timepoint 0, 0.75, 1.5, 3, 6, 9, 12 hours; details: 5 µM
[24] = as §2, with “the gut metagenome community of A-07 with ENA study accession number: PRJEB31790” for “Actinomyces graevenitzii strain: DSM15540”, “7” for “6”; design: dose 5 uM, timepoint 0, 0.75, 1.5, 3, 6, 9, 12 hours; details: 5 µM
[25] = as §2, with “the gut metagenome community of A-10 with ENA study accession number: PRJEB31790” for “Actinomyces graevenitzii strain: DSM15540”, “7” for “6”; design: dose 5 uM, timepoint 0, 0.75, 1.5, 3, 6, 9, 12 hours; details: 5 µM
[26] = as §2, with “the gut metagenome community of P-01 with ENA study accession number: PRJEB31790” for “Actinomyces graevenitzii strain: DSM15540”, “7” for “6”; design: dose 5 uM, timepoint 0, 0.75, 1.5, 3, 6, 9, 12 hours; details: 5 µM
[27] = as §2, with “the gut metagenome community of P-03 with ENA study accession number: PRJEB31790” for “Actinomyces graevenitzii strain: DSM15540”, “7” for “6”; design: dose 5 uM, timepoint 0, 0.75, 1.5, 3, 6, 9, 12 hours; details: 5 µM
[28] = as §2, with “the gut metagenome community of T-03 with ENA study accession number: PRJEB31790” for “Actinomyces graevenitzii strain: DSM15540”, “7” for “6”; design: dose 5 uM, timepoint 0, 0.75, 1.5, 3, 6, 9, 12 hours; details: 5 µM
[29] = as §2, with “the gut metagenome community of T-04 with ENA study accession number: PRJEB31790” for “Actinomyces graevenitzii strain: DSM15540”, “7” for “6”; design: dose 5 uM, timepoint 0, 0.75, 1.5, 3, 6, 9, 12 hours; details: 5 µM
[30] = as §2, with “the gut metagenome community of T-05 with ENA study accession number: PRJEB31790” for “Actinomyces graevenitzii strain: DSM15540”, “7” for “6”; design: dose 5 uM, timepoint 0, 0.75, 1.5, 3, 6, 9, 12 hours; details: 5 µM

SMILES: CCOc1nc2cccc(C(=O)O)c2n1Cc1ccc(-c2ccccc2-c2nnn[nH]2)cc1
- Bacterial Biotransformation [1]: Compound NOT metabolized
- Bacterial Biotransformation [2]: Compound NOT metabolized
- Bacterial Biotransformation [3]: Compound NOT metabolized
- Bacterial Biotransformation [4]: Compound NOT metabolized
- Bacterial Biotransformation [5]: Compound NOT metabolized
- Bacterial Biotransformation [6]: Compound NOT metabolized
- Bacterial Biotransformation [7]: Compound NOT metabolized
- Bacterial Biotransformation [8]: Compound NOT metabolized
- Bacterial Biotransformation [9]: Compound NOT metabolized
- Bacterial Biotransformation [10]: Compound NOT metabolized
- Bacterial Biotransformation [11]: Compound NOT metabolized
- Bacterial Biotransformation [12]: Compound NOT metabolized
- Bacterial Biotransformation [13]: Compound NOT metabolized
- Bacterial Biotransformation [14]: Compound NOT metabolized
- Bacterial Biotransformation [15]: Compound NOT metabolized
- Bacterial Biotransformation [16]: Compound NOT metabolized
- Bacterial Biotransformation [17]: Compound NOT metabolized
- Bacterial Biotransformation [18]: Compound NOT metabolized
- Bacterial Biotransformation [19]: Compound NOT metabolized
- Bacterial Biotransformation [20]: Compound NOT metabolized
- Bacterial Biotransformation [21]: Compound NOT metabolized
- Bacterial Biotransformation [22]: Compound NOT metabolized
- Bacterial Biotransformation [23]: Compound NOT metabolized
- Bacterial Biotransformation [24]: Compound NOT metabolized
- Bacterial Biotransformation [25]: Compound NOT metabolized
- Bacterial Biotransformation [26]: Compound NOT metabolized
- Bacterial Biotransformation [27]: Compound NOT metabolized
- Bacterial Biotransformation [28]: Compound NOT metabolized
- Bacterial Biotransformation [29]: Compound NOT metabolized
- Bacterial Biotransformation [30]: Compound NOT metabolized

SMILES: CCOC(=O)[C@H](CCc1ccccc1)N[C@@H](C)C(=O)N1[C@H](C(=O)O)C[C@@H]2CCC[C@@H]21
- Bacterial Biotransformation [1]: Compound NOT metabolized
- Bacterial Biotransformation [2]: Compound NOT metabolized
- Bacterial Biotransformation [3]: Compound NOT metabolized
- Bacterial Biotransformation [4]: Compound NOT metabolized
- Bacterial Biotransformation [5]: Compound NOT metabolized
- Bacterial Biotransformation [6]: Compound NOT metabolized
- Bacterial Biotransformation [7]: Compound NOT metabolized
- Bacterial Biotransformation [8]: Compound NOT metabolized
- Bacterial Biotransformation [9]: Compound NOT metabolized
- Bacterial Biotransformation [10]: Compound NOT metabolized
- Bacterial Biotransformation [11]: Compound NOT metabolized
- Bacterial Biotransformation [12]: Compound NOT metabolized
- Bacterial Biotransformation [13]: Compound NOT metabolized
- Bacterial Biotransformation [14]: Compound NOT metabolized
- Bacterial Biotransformation [15]: Compound NOT metabolized
- Bacterial Biotransformation [16]: Compound metabolized
- Bacterial Biotransformation [17]: Compound NOT metabolized
- Bacterial Biotransformation [18]: Compound NOT metabolized
- Bacterial Biotransformation [19]: Compound NOT metabolized
- Bacterial Biotransformation [20]: Compound NOT metabolized
- Bacterial Biotransformation [21]: Compound NOT metabolized
- Bacterial Biotransformation [22]: Compound NOT metabolized
- Bacterial Biotransformation [23]: Compound NOT metabolized
- Bacterial Biotransformation [24]: Compound NOT metabolized
- Bacterial Biotransformation [25]: Compound NOT metabolized
- Bacterial Biotransformation [26]: Compound NOT metabolized
- Bacterial Biotransformation [27]: Compound NOT metabolized
- Bacterial Biotransformation [28]: Compound NOT metabolized
- Bacterial Biotransformation [29]: Compound NOT metabolized
- Bacterial Biotransformation [30]: Compound NOT metabolized

SMILES: C[C@@H](NCCCc1cccc(C(F)(F)F)c1)c1cccc2ccccc12
- Bacterial Biotransformation [1]: Compound NOT metabolized
- Bacterial Biotransformation [2]: Compound NOT metabolized
- Bacterial Biotransformation [3]: Compound NOT metabolized
- Bacterial Biotransformation [4]: Compound NOT metabolized
- Bacterial Biotransformation [5]: Compound NOT metabolized
- Bacterial Biotransformation [6]: Compound NOT metabolized
- Bacterial Biotransformation [7]: Compound NOT metabolized
- Bacterial Biotransformation [8]: Compound NOT metabolized
- Bacterial Biotransformation [9]: Compound NOT metabolized
- Bacterial Biotransformation [10]: Compound NOT metabolized
- Bacterial Biotransformation [11]: Compound NOT metabolized
- Bacterial Biotransformation [12]: Compound NOT metabolized
- Bacterial Biotransformation [13]: Compound NOT metabolized
- Bacterial Biotransformation [14]: Compound NOT metabolized
- Bacterial Biotransformation [15]: Compound NOT metabolized
- Bacterial Biotransformation [16]: Compound NOT metabolized
- Bacterial Biotransformation [17]: Compound NOT metabolized
- Bacterial Biotransformation [18]: Compound NOT metabolized
- Bacterial Biotransformation [19]: Compound NOT metabolized
- Bacterial Biotransformation [20]: Compound NOT metabolized
- Bacterial Biotransformation [21]: Compound NOT metabolized
- Bacterial Biotransformation [22]: Compound NOT metabolized
- Bacterial Biotransformation [23]: Compound NOT metabolized
- Bacterial Biotransformation [24]: Compound NOT metabolized
- Bacterial Biotransformation [25]: Compound NOT metabolized
- Bacterial Biotransformation [26]: Compound NOT metabolized
- Bacterial Biotransformation [27]: Compound NOT metabolized
- Bacterial Biotransformation [28]: Compound NOT metabolized
- Bacterial Biotransformation [29]: Compound NOT metabolized
- Bacterial Biotransformation [30]: Compound NOT metabolized
